Experimental data published in patent US20250032525A1 (priority 2021, published 2025).
Where two headings read alike, the source gives them in different places.

What was measured:
[1] = system: A431-B1; assay: In vitro cytotoxicity; type: cell-based
Description: (§1) Experiments were repeated at least 3 times.

[2] = system: A431-G2; assay: In vitro cytotoxicity; type: cell-based
Description: as §1

[3] = system: A431; assay: In vitro cytotoxicity; type: cell-based
Description: as §1

[4] = system: MES-SA/Dx5; assay: In vitro cytotoxicity; type: cell-based; details: MES-SA/Dx5; read-out: IC50
Description: as §1

[5] = system: MES-SA; assay: In vitro cytotoxicity; type: cell-based; details: read-out: IC50
Description: as §1

[6] = system: P388/ADR; assay: In vitro cytotoxicity; type: cell-based; details: read-out: IC50
Description: as §1

[7] = system: P388; assay: In vitro cytotoxicity; type: cell-based
Description: as §1

[8] = system: Lewis Lung Carcinoma (LLC) tumor; assay: Mouse Lewis lung carcinoma (LLC) model; type: in vivo, C57BL/6 mice; details: single intravenous dose; cisplatin 5 mg/kg, LiPyDau 1 mg/kg
Experimental: FIG. 6. Anti-tumor effect of LiPyDau and cisplatin in the mouse Lewis lung cancer (LLC) lung carcinoma model. C57BL/6 mice received sc. injection of 2×10^5 LLC cells in 100 μl PBS. When the tumors were palpable, mice were randomized to receive a single intravenous dose of cisplatin (5 mg/kg) or LiPyDau (1 mg/kg) as indicated by the arrow. Control mice were treated with saline.
Mouse melanoma (B16), lung (Lewis lung carcinoma, LLC) and breast (4T1-LUC) cancer cell lines were used to establish allograft tumors for drug testing. 5×10^5 B16 or 2×10^5 LLC cells were inoculated subcutaneously in 200 μl serum-free culture media. 4T1-LUC tumors were established by injecting 1×10^6 cells in 20 μl serum-free culture media through the nipple directly to the breast tissue of 8 weeks old BALB/c mice on day 0). […] For the B16, LLC and 4T1-LUC tumor models 4, 6 and 6 mice were treated with LiPyDau while 4, 3 and 6 animals were in the saline treated groups, respectively.

[9] = system: NCI-60 cell lines; assay: NCI DTP NCI-60 cell line screen database (sulforhodamine B), panel; type: cell-based; details: Homo sapiens
[10] = system: MALME-3M; details: NCI-60 database, sulforhodamine B, read-out: Cytotoxic IC50; cited from earlier work
[11] = system: SK-MEL-28; details: SK-MEL-28, NCI-60 database, sulforhodamine B; read-out: Cytotoxic IC50; cited from earlier work
[12] = system: SK-MEL-2; details: SK-MEL-2, NCI-60 database, sulforhodamine B; read-out: Cytotoxic IC50; cited from earlier work
[13] = system: HT29; details: HT29, NCI-60 database, sulforhodamine B; read-out: Cytotoxic IC50; cited from earlier work
[14] = system: HCT-15; details: HCT-15, NCI-60 database, sulforhodamine B; read-out: Cytotoxic IC50; cited from earlier work
[15] = system: COLO 205; details: COLO 205, NCI-60 database, sulforhodamine B; read-out: Cytotoxic IC50; cited from earlier work
[16] = system: HCC-2998; details: HCC-2998, NCI-60 database, sulforhodamine B; read-out: Cytotoxic IC50; cited from earlier work
[17] = system: HCT-116; details: HCT-116, NCI-60 database, sulforhodamine B; read-out: Cytotoxic IC50; cited from earlier work
[18] = system: KM12; details: KM12, NCI-60 database, sulforhodamine B; read-out: Cytotoxic IC50; cited from earlier work
[19] = system: SW-620; details: SW-620, NCI-60 database, sulforhodamine B; read-out: Cytotoxic IC50; cited from earlier work
[20] = system: EKVX; details: NCI-60 database, sulforhodamine B, read-out: Cytotoxic IC50; cited from earlier work
[21] = system: HOP-62; details: HOP-62, NCI-60 database, sulforhodamine B; read-out: Cytotoxic IC50; cited from earlier work
[22] = system: NCI-H226; details: NCI-H226, NCI-60 database, sulforhodamine B; read-out: Cytotoxic IC50; cited from earlier work
[23] = system: PC-3; details: PC-3, NCI-60 database, sulforhodamine B; read-out: Cytotoxic IC50; cited from earlier work
[24] = system: DU-145; details: DU-145, NCI-60 database, sulforhodamine B; read-out: Cytotoxic IC50; cited from earlier work
[25] = system: HL-60(TB); details: NCI-60 database, sulforhodamine B, read-out: Cytotoxic IC50; cited from earlier work
[26] = system: CCRF-CEM; details: NCI-60 database, sulforhodamine B, read-out: Cytotoxic IC50; cited from earlier work
[27] = system: OVCAR-3; details: OVCAR-3, NCI-60 database, sulforhodamine B; read-out: Cytotoxic IC50; cited from earlier work
[28] = system: OVCAR-5; details: OVCAR-5, NCI-60 database, sulforhodamine B; read-out: Cytotoxic IC50; cited from earlier work
[29] = system: OVCAR-8; details: OVCAR-8, NCI-60 database, sulforhodamine B; read-out: Cytotoxic IC50; cited from earlier work
[30] = system: NCI/ADR-RES; details: NCI-60 database, sulforhodamine B, read-out: Cytotoxic IC50; cited from earlier work
[31] = system: UO-31; details: UO-31, NCI-60 database, sulforhodamine B; read-out: Cytotoxic IC50; cited from earlier work
[32] = system: A498; details: A498, NCI-60 database, sulforhodamine B; read-out: Cytotoxic IC50; cited from earlier work
[33] = system: CAKI-1; details: CAKI-1, NCI-60 database, sulforhodamine B; read-out: Cytotoxic IC50; cited from earlier work
[34] = system: RXF 393; details: RXF 393, NCI-60 database, sulforhodamine B; read-out: Cytotoxic IC50; cited from earlier work
[35] = system: MDA-MB-231; details: MDA-MB-231, NCI-60 database, sulforhodamine B; read-out: Cytotoxic IC50; cited from earlier work
[36] = system: MCF7; details: MCF7, NCI-60 database, sulforhodamine B; read-out: Cytotoxic IC50; cited from earlier work
[37] = system: T-47D; details: NCI-60 database, sulforhodamine B, read-out: Cytotoxic IC50; cited from earlier work
[38] = system: MDA-MB-435; details: MDA-MB-435, NCI-60 database, sulforhodamine B; read-out: Cytotoxic IC50; cited from earlier work
[39] = system: HS 578T; details: NCI-60 database, sulforhodamine B, read-out: Cytotoxic IC50; cited from earlier work
[40] = system: BT-549; details: BT-549, NCI-60 database, sulforhodamine B; read-out: Cytotoxic IC50; cited from earlier work
[41] = system: PANC-1; details: PANC-1, from Varbanov et al. (2017), PrestoBlue; read-out: Cytotoxic IC50; cited from earlier work
[42] = Nagy et al.; cited from earlier work
[43] = system: Dunning R-3327-H prostate carcinoma; details: cited from earlier work
[44] = system: nitrosamine-induced pancreatic cancers; details: intraperitoneal, total dose of 100 nmol/kg; cited from earlier work
[45] = system: patient-derived lung adenocarcinoma xenografts; assay: Patient-derived xenograft (PDX) model; type: in vivo, NSG mice; details: single treatment; LiPyDau 0.5 mg/kg, DOX 2 mg/kg, paclitaxel 12 mg/kg; 7 days
Description: A piece from the tumor tissue was transplanted subcutaneously into the right flank and propagated in NOD.Cg-Prkdc^scid Il2rg^tm1Wjl/SzJ (NSG) mice for 7 months. After the xenografted tumor reached 1000 mm^3, tumor pieces were retransplanted subcutaneously into the right flank of 20 additional NSG mice, which were given a single treatment with various chemotherapeutics or LiPyDau. Every treatment group consists of 5 animals. After daily monitoring of the tumor volume for one week, the mice were sacrificed and the cytotoxicity of the treatments was investigated on tissue slices by image analysis.
For treatment, tumor pieces were engrafted subcutaneously.

For `N.N.[Cl][Pt][Cl]` [Cisplatin, cisplatin], the IC50 [1] was 3950 nM, the IC50 [2] was 1950 nM and the IC50 [3] was 3860 nM. It also gave an IC50 [4] of 12500 nM, an IC50 [5] of 7580 nM and an IC50 [6] of 1180 nM. For the same molecule, the IC50 [7] was 610 nM and the Tumor growth [8] was “did not have any measurable effect on tumor growth”.
For `COc1cccc2c1C(=O)c1c(O)c3c(c(O)c1C2=O)C[C@@](O)(C(C)=O)C[C@@H]3O[C@H]1C[C@H](N)[C@H](O)[C@H](C)O1` [Dau, daunorubicin], the IC50 ([9]; read-out: Cytotoxic IC50, av. breast) was 112 nM, the IC50 ([9]; read-out: Cytotoxic IC50, av. colorectal) was 145 nM and the IC50 ([9]; read-out: Cytotoxic IC50, av. leukaemia) was 27 nM. It also gave an IC50 ([9]; read-out: Cytotoxic IC50, av. lung) of 157 nM, an IC50 ([9]; read-out: Cytotoxic IC50, av. melanoma) of 113 nM and an IC50 ([9]; read-out: Cytotoxic IC50, av. ovarian) of 388 nM. The IC50 ([9]; read-out: Cytotoxic IC50, av. prostatic) was 92.2 nM, the IC50 ([9]; read-out: Cytotoxic IC50, av. renal) was 158 nM and the IC50 [10] was 49.7 nM. The IC50 [11] was 132 nM, the IC50 [12] was 158 nM and the IC50 [13] was 50.7 nM. For the same molecule, the IC50 [14] was 650 nM, the IC50 [15] was 52.5 nM and the IC50 [16] was 99.3 nM. The IC50 [17] was 28.6 nM, the IC50 [18] was 95.9 nM and the IC50 [19] was 35.5 nM. The IC50 [20] was 360 nM, the IC50 [21] was 53 nM and the IC50 [22] was 46.5 nM. For the same molecule, the IC50 [23] was 108 nM, the IC50 [24] was 76.7 nM and the IC50 [25] was 31.2 nM. The IC50 [26] was 22.8 nM, the IC50 [27] was 124 nM and the IC50 [28] was 155 nM. For the same molecule, the IC50 [29] was 41.6 nM, the IC50 [30] was 1230 nM and the IC50 [31] was 175 nM. For the same molecule, the IC50 [32] was 137 nM, the IC50 [33] was 229 nM and the IC50 [34] was 92.5 nM. For the same molecule, the IC50 [35] was 201 nM, the IC50 [36] was 19.5 nM and the IC50 [37] was 40.8 nM. For the same molecule, the IC50 [38] was 137 nM, the IC50 [39] was 120 nM and the IC50 [40] was 153 nM. For the same molecule, the IC50 [41] was 260 nM.
In the case of `COc1cccc2c1C(=O)c1c(O)c3c(c(O)c1C2=O)C[C@@](O)(C(=O)CO)C[C@@H]3O[C@H]1C[C@H](N2C=CCC2)[C@H](O)[C@H](C)O1` [PyDox, 2-pyrrolino-doxorubicin], the “Potency in vitro relative to Dox” value [42] is listed as 500-1000 times, the Animals that died ([43]; 3×25 nmol/kg, rats) is listed as 6 of 10 and the “Change in the number of mitotic or apoptotic cells” value ([43]; after treatment in rats) is listed as “no significant change in the number of mitotic or apoptotic cells”. For the same molecule, the Mortality ([43]; dose of 50 nmol/kg, rats) was “death of all rats” and the Hamsters that died [44] was 16 of 18.
With `CC(=O)O[C@H]1C(=O)[C@@]2(C)[C@H]([C@H](OC(=O)c3ccccc3)[C@]3(O)C[C@H](OC(=O)[C@H](O)[C@@H](NC(=O)c4ccccc4)c4ccccc4)C(C)=C1C3(C)C)[C@]1(OC(C)=O)CO[C@@H]1C[C@@H]2O` [paclitaxel] the Tumor growth [45] was “failed to exert any effect on tumor growth”.
